Where two headings read alike, the source gives them in different places. Values belong to the molecule of their own block, whether it stands above or below them.
Columns and labels:
[1] = molecular target: T1, Pseudomonas fluorescens KMO (PfKMO) (Pseudomonas fluorescens, UniProt Q84HF5, C252S/C461S); experiment: biochemical
T1 construct: made in house; host or cells: E. coli BL21 (DE3)
Description: (§1) A combination of ligand- and structural-based virtual screening approaches (see supporting information for details) was used to identify an initial library of >1000 compounds that may be suitable as potential KMO inhibitors. These compounds were screened for inhibition of Pseudomonas fluorescens KMO (PfKMO) and Homo sapiens KMO (HsKMO) using high-throughput assays by monitoring the time-dependent oxidation of NADPH at 340 nm[23].
(§2) Small-molecule compounds were supplied by Biofocus (Charles River Laboratories International Inc., MA, USA), which were identified in silico as potential inhibitors (further details are described in the Supplementary Methods). Initial inhibition assays were performed against Pseudomonas fluorescens KMO (PfKMO) and Homo sapiens KMO (HsKMO) by monitoring the time-dependent absorbance change of NADPH at 340 nm. Purified KMO protein (200 nM) was incubated in 100 µL reaction buffer (20 mM potassium phosphate pH 8.0, 7 mM 2-mercaptoethanol) containing 100 μM NADPH, 100 μM L-Kyn and 20 μM potential inhibitors in 96-well plates. […] The inhibitors identified in the initial screens were validated and re-assayed individually in a 1 cm path-length quartz micro cuvette. […] Suppliers for target inhibitor compounds are listed in Supplementary Table 11.
(§3) Supplementary Figure 1. Examples of inhibition data used to generate IC50 values for selected KMO inhibitors. Fixed concentration of L -KYN (200 µM) and NADPH (100µM) were added into reaction buffer (HsKMO: 20mM potassium phosphate pH 8.0, 7 mM 2-mercaptoethanol; PfKMO: 20 mM HEPES, 10mM sodium acetate, pH 7.5, 2mM DTT). The reaction was initiated by the addition of KMO enzyme (HsKMO: 0.5µM; PfKMO: 0.1 µM). KMO activity was measured in the presence of a range of inhibitor concentrations. […]
(§4) 3.5 Steady-state enzymatic assays.
(§5) Initial screening assays and determination of IC50 values for each potential inhibitor compound were carried out using either 0.1 µM PfKMO or 0.5 µM HsKMO at fixed […]
(§6) (HsKMO: 20 mM potassium phosphate pH 8.0, 7 mM 2-mercaptoethanol; PfKMO:
(§7) 20 mM HEPES, 10 mM sodium acetate, pH 7.5, 2 mM DTT). KMO activity was measured in the presence of a range of inhibitor concentrations by monitoring the […]
consumption of NADPH at 340 nm upon addition of enzyme via a Cary 50 UV-Vis spectrophotometer (Agilent Technologies). Rates were determined from linear regression fits to the initial linear portion of the curves. All measurements were performed in triplicate. The IC50 values for inhibitors were obtained by plotting the percentage inhibition versus the inhibitor concentration and fitting to the Morrison equation16 (equation 1) using Origin 9.0 Software (OriginLab, Northampton, MA). […]

Homo sapiens KMO (HsKMO) = molecular target: T2, Homo sapiens KMO (HsKMO) (Homo sapiens, UniProt O15229); experiment: KMO inhibition assay, NADPH oxidation at 340 nm (HsKMO); format: biochemical
T2 construct: GST; made in house
T2 sequence (O15229 whole entry): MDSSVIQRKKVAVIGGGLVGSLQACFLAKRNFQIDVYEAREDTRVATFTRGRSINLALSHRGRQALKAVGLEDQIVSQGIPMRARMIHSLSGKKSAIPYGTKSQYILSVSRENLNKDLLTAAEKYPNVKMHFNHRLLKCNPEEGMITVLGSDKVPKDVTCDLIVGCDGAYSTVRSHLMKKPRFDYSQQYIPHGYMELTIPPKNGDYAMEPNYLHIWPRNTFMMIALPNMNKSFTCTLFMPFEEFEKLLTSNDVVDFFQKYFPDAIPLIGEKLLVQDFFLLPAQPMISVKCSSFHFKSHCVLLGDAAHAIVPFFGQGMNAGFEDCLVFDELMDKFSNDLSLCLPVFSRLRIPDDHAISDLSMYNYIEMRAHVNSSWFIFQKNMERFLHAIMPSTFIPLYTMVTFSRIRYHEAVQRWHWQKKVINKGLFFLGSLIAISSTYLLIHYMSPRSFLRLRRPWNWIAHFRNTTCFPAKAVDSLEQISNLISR
Description: as §1, §2
Supplementary Figure 1. Examples of inhibition data used to generate IC50 values for selected KMO inhibitors.
as §3, with “NADPH” for “Supplementary Figure 1. Examples of inhibition data used to generate IC50 values for selected KMO inhibitors. Fixed concentration of L -KYN (200 µM) and NADPH”
as §4, §5, §6, §7
consumption of NADPH at 340 nm upon addition of enzyme via a Cary 50 UV-Vis spectrophotometer (Agilent Technologies). Rates were determined from linear regression fits to the initial linear portion of the curves. All measurements were performed in triplicate. The IC50 values for inhibitors were obtained by plotting the percentage inhibition versus the inhibitor concentration and fitting to the Morrison equation16 (equation 1) using Origin 9.0 Software (OriginLab, Northampton, MA).
E + I + K!"" − E + I + K!"" ! − 4[E][I] where v0 is the enzyme activity without inhibitor, vi is the enzyme activity with ligand

in vitro = in vitro ADME, canine; details: dog; for Papp A→B at 1 h, 10 µM / Papp B→A at 1 h, 10 µM / recovery at 1 h, 10 µM: MDCK
Protocol: (§8) internal standard at each timepoint. […]
(§9) including an analytical internal standard.
(§10) Apparent permeability (Papp) values were determined from the relationship: […]
(§11) Where V is the volume of each Transwell compartment (apical 125 µL, basolateral 600 µL), and concentrations are the relative MS responses for compound (normalized to internal standard) in the donor chamber before incubation and acceptor chamber at the end of the incubation. Area = area of cells exposed for drug transfer (0.33 cm 2).
(§12) Efflux ratios (Papp B>A / Papp A>B) were calculated for each compound from the […]
(§13) MDR1-MDCK cell line has been engineered to overexpress the efflux transporter, MDR1 (P-glycoprotein), and a finding of good permeability B>A, but poor […]
(§14) order to confirm the involvement of MDR1 in any efflux seen, an “ef fective efflux ratio” (EER) was calculated by comparing compound efflux ratios (ER) in the two cell types, i.e. EER = ER (MDR1-MDCK)/ ER (wild-type MDCK). This ratio illustrates the effect of the over-expressed MDR1 normalised for the background movement of compound through the wild-type cells.
(§15) Lucifer Yellow (LY) was added to the apical buffer in all wells to assess viability of the cell layer. As LY cannot freely permeate lipophilic barriers, a high degree of LY […]
(§16) validity of other wells on the plate.
(§17) Compound recovery from the wells was determined from MS responses (normalized to internal standard) in donor and acceptor chambers at the end of incubation compared to response in the donor chamber pre-incubation.

MDR1 (P-glycoprotein) = experiment: in vitro; format: in vitro ADME, canine; details: dog
Protocol: as §8, §9, §10, §11, §12, §13, §14, §15, §16, §17

[2] = pH 7.4, Papp A>B n=1, wild type MDCK
[3] = pH 7.4, Papp A>B n=2, wild type MDCK
[4] = pH 7.4, Papp B>A n=1, wild type MDCK
[5] = pH 7.4, Papp B>A n=2, wild type MDCK
[6] = pH 7.4, wild type MDCK, read-out: Papp A>B Mean
[7] = pH 7.4, wild type MDCK, read-out: Papp B>A Mean
[8] = pH 7.4, wild type MDCK, read-out: Recovery A>B Mean
[9] = pH 7.4, wild type MDCK, read-out: Recovery A>B n=1
[10] = pH 7.4, wild type MDCK, read-out: Recovery A>B n=2
[11] = pH 7.4, wild type MDCK, read-out: Recovery B>A Mean
[12] = pH 7.4, wild type MDCK, read-out: Recovery B>A n=1
[13] = pH 7.4, wild type MDCK, read-out: Recovery B>A n=2
[14] = MDCK-MDR1, pH 7.4, MDR1 MDCK, read-out: Papp A>B Mean
[15] = MDCK-MDR1, pH 7.4, MDR1 MDCK, read-out: Papp B>A Mean
[16] = MDCK-MDR1, pH 7.4, MDR1 MDCK, read-out: Recovery A>B Mean
[17] = MDCK-MDR1, pH 7.4, MDR1 MDCK, read-out: Recovery A>B n=1
[18] = MDCK-MDR1, pH 7.4, MDR1 MDCK, read-out: Recovery A>B n=2
[19] = MDCK-MDR1, pH 7.4, MDR1 MDCK, read-out: Recovery B>A Mean
[20] = MDCK-MDR1, pH 7.4, MDR1 MDCK, read-out: Recovery B>A n=1
[21] = MDCK-MDR1, pH 7.4, MDR1 MDCK, read-out: Recovery B>A n=2
[22] = MDCK-MDR1, pH 7.4, Papp A>B n=1, MDR1 MDCK
[23] = MDCK-MDR1, pH 7.4, Papp A>B n=2, MDR1 MDCK
[24] = MDCK-MDR1, pH 7.4, Papp B>A n=1, MDR1 MDCK
[25] = MDCK-MDR1, pH 7.4, Papp B>A n=2, MDR1 MDCK

T1 sequence (Q84HF5 whole entry C252S/C461S): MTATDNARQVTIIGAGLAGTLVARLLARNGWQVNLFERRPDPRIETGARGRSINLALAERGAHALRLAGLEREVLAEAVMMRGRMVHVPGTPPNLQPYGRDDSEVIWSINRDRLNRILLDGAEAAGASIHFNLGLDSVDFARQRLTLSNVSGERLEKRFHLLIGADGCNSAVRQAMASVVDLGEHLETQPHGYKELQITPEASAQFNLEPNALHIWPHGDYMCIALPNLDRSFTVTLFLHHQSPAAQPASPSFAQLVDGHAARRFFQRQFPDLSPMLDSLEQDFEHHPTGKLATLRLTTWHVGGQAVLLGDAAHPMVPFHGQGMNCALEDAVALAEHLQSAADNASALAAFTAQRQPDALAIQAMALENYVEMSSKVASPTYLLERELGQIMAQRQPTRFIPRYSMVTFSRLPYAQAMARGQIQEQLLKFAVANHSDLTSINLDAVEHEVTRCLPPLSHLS

Compound: O=C(O)c1ccc(-c2cc(C(F)(F)F)ccc2Cl)o1 [compound 12, 5-[2-chloro-5-(trifluoromethyl)phenyl]furan-2-carboxylic acid]
IC50 [1]: 54 ± 1.6 µM | IC50 (Homo sapiens KMO (HsKMO)): 31.8 µM

Papp A→B at 1 h, 10 µM (in vitro; [2]): < 1 ×10⁻⁶ cm/s | Papp A→B at 1 h, 10 µM (in vitro; [3]): < 1 ×10⁻⁶ cm/s | Papp B→A at 1 h, 10 µM (in vitro; [4]): 3.6 ×10⁻⁶ cm/s | Papp B→A at 1 h, 10 µM (in vitro; [5]): 3.9 ×10⁻⁶ cm/s | Papp A→B at 1 h, 10 µM (in vitro; [6]): < 1 ×10⁻⁶ cm/s | Papp B→A at 1 h, 10 µM (in vitro; [7]): 3.75 ×10⁻⁶ cm/s | recovery at 1 h, 10 µM (in vitro; [8]): 46.5% | recovery at 1 h, 10 µM (in vitro; [9]): 48% | recovery at 1 h, 10 µM (in vitro; [10]): 45% | recovery at 1 h, 10 µM (in vitro; [11]): 72.5% | recovery at 1 h, 10 µM (in vitro; [12]): 71% | recovery at 1 h, 10 µM (in vitro; [13]): 74% | Papp A→B at 1 h, 10 µM (MDR1 (P-glycoprotein); [14]): < 1 ×10⁻⁶ cm/s | Papp B→A at 1 h, 10 µM (MDR1 (P-glycoprotein); [15]): 22 ×10⁻⁶ cm/s | recovery at 1 h, 10 µM (MDR1 (P-glycoprotein); [16]): 55% | recovery at 1 h, 10 µM (MDR1 (P-glycoprotein); [17]): 55% | recovery at 1 h, 10 µM (MDR1 (P-glycoprotein); [18]): 55% | recovery at 1 h, 10 µM (MDR1 (P-glycoprotein); [19]): 67.5% | recovery at 1 h, 10 µM (MDR1 (P-glycoprotein); [20]): 71% | recovery at 1 h, 10 µM (MDR1 (P-glycoprotein); [21]): 64% | Papp A→B at 1 h, 10 µM (MDR1 (P-glycoprotein); [22]): < 1 ×10⁻⁶ cm/s | Papp A→B at 1 h, 10 µM (MDR1 (P-glycoprotein); [23]): < 1 ×10⁻⁶ cm/s | Papp B→A at 1 h, 10 µM (MDR1 (P-glycoprotein); [24]): 24 ×10⁻⁶ cm/s | Papp B→A at 1 h, 10 µM (MDR1 (P-glycoprotein); [25]): 20 ×10⁻⁶ cm/s
Compound: CC[C@]1(O)C[C@@H]2CN(CCc3c([nH]c4ccccc34)[C@@](C(=O)OC)(c3cc4c(cc3OC)N(C)[C@H]3[C@@](O)(C(=O)OC)[C@H](OC(C)=O)[C@]5(CC)C=CCN6CC[C@]43[C@@H]65)C2)C1 [Vinblastine, reference compound]

Compound: Cc1cc2c(c(C)c1Cl)N(CC(N)=O)C(=O)CO2 [1g]
IC50 [1]: > 300 µM | IC50 (Homo sapiens KMO (HsKMO)): > 300 µM

Compound: Cc1ccc2c(c1)cc(C(=O)N[C@@H](C(=O)O)c1ccccc1)n2C [compound 7, (R)-2-(1,5-dimethyl-1H-indole-2-carboxamido)-2-phenylacetic acid]
IC50 [1]: 101 ± 9.1 µM | IC50 (Homo sapiens KMO (HsKMO)): 21.3 µM

Papp A→B at 1 h, 10 µM (in vitro; [2]): 52 ×10⁻⁶ cm/s | Papp A→B at 1 h, 10 µM (in vitro; [3]): 57 ×10⁻⁶ cm/s | Papp B→A at 1 h, 10 µM (in vitro; [4]): 30 ×10⁻⁶ cm/s | Papp B→A at 1 h, 10 µM (in vitro; [5]): 31 ×10⁻⁶ cm/s | Papp A→B at 1 h, 10 µM (in vitro; [6]): 54.5 ×10⁻⁶ cm/s | Papp B→A at 1 h, 10 µM (in vitro; [7]): 30.5 ×10⁻⁶ cm/s | recovery at 1 h, 10 µM (in vitro; [8]): 91% | recovery at 1 h, 10 µM (in vitro; [9]): 88% | recovery at 1 h, 10 µM (in vitro; [10]): 94% | recovery at 1 h, 10 µM (in vitro; [11]): 80.5% | recovery at 1 h, 10 µM (in vitro; [12]): 77% | recovery at 1 h, 10 µM (in vitro; [13]): 84% | efflux ratio at 1 h, 10 µM (in vitro; pH 7.4, wild type MDCK, Papp B>A / Papp A>B): 0.56 | Papp A→B at 1 h, 10 µM (MDR1 (P-glycoprotein); [14]): 52.5 ×10⁻⁶ cm/s | Papp B→A at 1 h, 10 µM (MDR1 (P-glycoprotein); [15]): 38 ×10⁻⁶ cm/s | recovery at 1 h, 10 µM (MDR1 (P-glycoprotein); [16]): 92.5% | recovery at 1 h, 10 µM (MDR1 (P-glycoprotein); [17]): 97% | recovery at 1 h, 10 µM (MDR1 (P-glycoprotein); [18]): 88% | recovery at 1 h, 10 µM (MDR1 (P-glycoprotein); [19]): 80.5% | recovery at 1 h, 10 µM (MDR1 (P-glycoprotein); [20]): 83% | recovery at 1 h, 10 µM (MDR1 (P-glycoprotein); [21]): 78% | Papp A→B at 1 h, 10 µM (MDR1 (P-glycoprotein); [22]): 53 ×10⁻⁶ cm/s | Papp A→B at 1 h, 10 µM (MDR1 (P-glycoprotein); [23]): 52 ×10⁻⁶ cm/s | Papp B→A at 1 h, 10 µM (MDR1 (P-glycoprotein); [24]): 39 ×10⁻⁶ cm/s | Papp B→A at 1 h, 10 µM (MDR1 (P-glycoprotein); [25]): 37 ×10⁻⁶ cm/s | efflux ratio at 1 h, 10 µM (MDR1 (P-glycoprotein); pH 7.4, MDR1 MDCK, Papp B>A / Papp A>B): 0.72
Compound: CC(C)NCC(O)COc1cccc2ccccc12 (centres unmarked) [Propranolol, reference compound]

Compound: O=C(O)[C@@H]1C[C@H]1C(=O)c1ccc(Cl)c(Cl)c1 [UPF648, reference compound]
IC50 [1]: 0.12 ± 0.03 µM | IC50 (Homo sapiens KMO (HsKMO)): 0.06 µM

Compound: O=C(O)c1ccc(-c2ccc(Cl)cc2Cl)o1 [compound 16, 5-(2,4-dichlorophenyl) furan-2-carboxylic acid]
IC50 [1]: 70.2 ± 2.8 µM | IC50 (Homo sapiens KMO (HsKMO)): 207 µM

Compound: O=C(Nc1ccccc1C(=O)O)c1ccc(-c2ccc(Cl)cc2Cl)o1 [compound 10, 2-(5-(2,4-dichlorophenyl)furan-2-carboxamido)benzoic acid]
IC50 [1]: 3 ± 0.1 µM | IC50 (Homo sapiens KMO (HsKMO)): 1.6 µM

Reference: publication PMC6656724 (Communications Biology, 2019)
